The test system of experiment [1] is human platelet aggregation (ADP-induced, platelet rich plasma). Description: Human platelet aggregation inhibition activity measuring test (ADP-induced, PRP). The format is cell-based. The note with it: 10 μM final concentration of compound; human PRP 3×10^8 platelets/ml; ADP (50 μM, 10 μl) induced; area under platelet aggregation curve. The procedure:
Test Method (1) Human Platelet Aggregation Inhibition Activity Measuring Test
A blood sample was collected from a healthy volunteers (adult) using a syringe containing 1/10th volume of 3.8% sodium citrate solution and centrifuged at 160×g for 10 minutes, thereby separating platelet rich plasma (PRP) of the supernatant. Remaining blood after the collection of PRP was centrifuged at 1,800×g for 10 minutes to separate platelet poor plasma (PPP). The number of platelets in the PRP was measured by an automatic blood cell counter (MEK-6258, Nihon Kohden Corp.), and then the number of platelets was adjusted to 3×10^8/ml by adding PPP to PRP and used in the following test. The ADP as an inducer of platelet aggregation was purchased from MC Medical. Platelet aggregation was measured using an aggregometer (MCM Hematracer 212; MC Medical). That is, 80 μl of PRP of 3×10^8 platelets/ml and 10 μl of a test compound solution or a solvent (10% DMSO or 10% DMSO-9% hydroxypropyl-β-cyclodextrin-4.5% d-mannitol) were incubated at 37° C. for 1 minute, and then 10 μl of ADP (50 μM) was added thereto to induce platelet aggregation, and changes in transmitted light were recorded for 5 minutes. The inhibition ratio was calculated using the area under platelet aggregation curve as an index.
In this connection, REx represents reference example number, and Ex Example compound number. In addition, Reference Examples 1 and 2 are the Example compounds described in the aforementioned Patent Reference 7, and were produced in accordance with the method described in said patent reference.

Another experiment has as its target T1, Human P2Y12 (Homo sapiens, UniProt Q9H244).
T1 construct: expressed in transfected cells; membrane fraction used
Kind of experiment: Substitution test for the binding of human P2Y12 with 2-methylthio-ADP (2-MeS-ADP). The note with it: 30 nM final concentration of compound; P2Y12 expression C6-15 cell membrane fraction; 0.75 nM [3H]- or [33P]-2-MeS-ADP. The procedure: Test Method (2) Substitution Test for the Binding of Human P2Y12 with 2-methylthio-ADP (2-MeS-ADP)
A C6-15 cell was inoculated into a 10 cm petri dish to a density of to 1×10^6 cells using DMEM medium and cultured for 1 day, and then 8 μg of a plasmid pEF-BOS-dfhr-human P2Y12 and 0.8 μg of pEF-BOS-neo (Nucleic Acid Res., 18, 5322, 1990) were gene-transferred using a transfection reagent (LipofectAMINE 2000; mfd. by GIBCO BRL).
24 hours after the aforementioned gene transfer operation, the gene-transferred cells were recovered, suspended in DMEM medium supplemented with 0.6 mg/ml of G 418 (mfd. by GIBCO BRL) and then serially diluted and inoculated again in a 10 cm petri dish. The colonies appeared after 2 weeks were individually obtained and used in the following test as P2Y12 protein expression C6-15 cells (WO 02/36631, Mol. Pharmacol., 60, 432, 2001).
After culturing the P2Y12 protein expression C6-15 cells, the cells were recovered. […]
A 100 μl portion of the P2Y12 protein expression C6-15 cell membrane fraction (100 μg/ml) obtained in the above was mixed with 1.5 μl of a test compound solution and 50 μl of 0.75 nM [^3H]-2-MeS-ADP (80 Ci/mmol, mfd. by Amersham Pharmacia Biotech) or 0.75 nM [^33P]-2-MeS-ADP (2100 Ci/mmol, mfd. by Perkin Elmer), incubated at room temperature for 1 hour in 50 mM Tris-HCl (pH 7.4) containing 100 mM NaCl and 50 mM MgCl2, and then recovered on a glass filter using a cell harvester. A microscintillator was added to the glass filter, and the radioactivity was measured using a liquid scintillation counter. Those to which the solvent alone was added and 1.5 μl of 250 μM ADP was added in the aforementioned test at the same time were regarded as total binding and nonspecific binding, and their radioactivity was measured. By regarding the total binding and nonspecific binding as inhibition ratio 0% and 100% respectively, inhibition ratio (%) of each compound to be tested was calculated.

Experiment [2] relates to rat platelet aggregation (ADP-induced, PRP). Description: Rat platelet aggregation inhibition test (oral administration, ex vivo ADP-induced aggregation). The note with it: dose 30 mg/kg oral, male SD rat, blood collected 2 hours after administration. Type of experiment: in vivo. On the procedure:
Test Method (3) Rat Platelet Aggregation Inhibition Test and Measurement of Test Compound Concentration in Plasma
By adding sodium hydroxide aqueous solution to the compound of the present invention, 0.5% methyl cellulose aqueous solution or suspension was prepared. The thus prepared liquid was orally administered using a sonde to a male SD rat (5 to 7 weeks of age) of after 12 hours or more of fasting. After 2 hours of the compound administration, blood was collected using a syringe containing 1/10th volume of 3.8% sodium citrate solution. In the same manner as in Test method (1), PPP and PRP of 3×10^8 platelets/ml were prepared. A 90 μl portion of the PRP of 3×10^8 platelets/ml was incubated at 37° C. for 1 minute, and then 10 μl of ADP (50 μM) was added thereto to induce platelet aggregation, and changes in transmitted light were recorded for 5 minutes. The inhibition ratio was calculated using the area under platelet aggregation curve as an index.

T1 sequence (Q9H244 whole entry): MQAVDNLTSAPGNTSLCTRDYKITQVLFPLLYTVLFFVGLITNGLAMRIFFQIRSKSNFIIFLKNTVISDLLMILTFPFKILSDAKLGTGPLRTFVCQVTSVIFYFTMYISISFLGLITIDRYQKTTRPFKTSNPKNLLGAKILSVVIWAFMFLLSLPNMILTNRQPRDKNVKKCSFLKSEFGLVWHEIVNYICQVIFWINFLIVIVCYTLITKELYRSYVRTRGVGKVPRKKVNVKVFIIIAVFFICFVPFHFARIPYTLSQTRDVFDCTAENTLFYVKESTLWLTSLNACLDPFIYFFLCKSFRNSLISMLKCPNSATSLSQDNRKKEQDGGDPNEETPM

For the compound `O=C(O)CCC(=O)Nc1cn(C2CCCC2)c2cc(NC3CCCCC3)c(F)cc2c1=O` [Ex 2, 4-{[7-(cyclohexylamino)-1-cyclopentyl-6-fluoro-4-oxo-1,4-dihydroquinolin-3-yl]amino}-4-oxobutanoic acid], the inhibition at 10 µM in experiment [1] is 93%. In addition, on Human P2Y12, the inhibition at 0.03 µM came to 89%.

Take `O=C(O)CCCNC(=O)c1cn(C2CCCC2)c2cc(NC3CCCCC3)c(F)cc2c1=O` [REx 1, 4-({[7-(cyclohexylamino)-1-cyclopentyl-6-fluoro-4-oxo-1,4-dihydroquinolin-3-yl]carbonyl}amino)butanoic Acid]: the inhibition at 10 µM in experiment [1] amounted to 64%. Further, on Human P2Y12, the inhibition at 0.03 µM worked out at 76%. In experiment [2], the inhibition at 30 mg/kg stood at 11%.

Consider `O=C(O)CNC(=O)c1cn(C2CCCC2)c2cc(NC3CCCCC3)c(F)cc2c1=O` [REx 2, ({[7-(cyclohexylamino)-1-cyclopentyl-6-fluoro-4-oxo-1,4-dihydroquinolin-3-yl]carbonyl}amino)acetic Acid], for which, in experiment [1], the inhibition at 10 µM stood at 79%. Besides, the inhibition at 0.03 µM at Human P2Y12 came out at 86%. Moreover, the inhibition at 30 mg/kg in experiment [2] was -7%.

A word on the inhibition: it is the drop in the measured response relative to a control, in per cent.

These data come from patent US8133882B2, “Quinolone derivative or pharmaceutically acceptable salt thereof” (Astellas Pharma Inc, priority 2006, dated 2012).
